Read-outs that look alike come from different tables or passages of the source.
Tests used:
[1] = design: method as in PMID 34965609; conditions: healthy subjects, cited from earlier work
[2] = in vivo
From the text: A population PK/PD (PopPK/PD) model was developed to describe the relationship between cetagliptin and DPP-4 inhibition. A sequential two-step analysis approach to modeling building was implemented. First, a population PK model was developed, and then parameters were fixed to establish the PopPK/PD model. The nonlinear mixed effect modeling method was used to establish the PopPK/PD model. Model selection criteria were based on goodness-of-fit plots, objective function value (OFV, equal to −2 log-likelihood), Akaike information criteria (AIC), and precision of parameter estimates.
A total of 560 plasma concentrations of cetagliptin from 32 patients with T2DM were used for PopPK analysis. The structural model was tested using either one- or two-compartment PK models. […]
The additive error model (Equation 2), proportional error model (Equation 3), and additive and proportional error model (Equation 4) were evaluated to describe the residual variability: […]
Goodness-of-fit plots were assessed to describe the adequacy of the final PopPK/PD model, including observations vs. population predictions, observations vs. individual predictions, conditional weighted residuals (CWRES) vs. population predictions, and CWRES vs. time., A bootstrap resampling procedure was performed to assess the stability of the final PopPK/PD model. […]

[3] = test system: plasma active GLP-1; design: method as in PMID 34965609; conditions: healthy subjects, cited from earlier work
[4] = Safety and tolerability assessments (adverse events); assay type: in vivo, human; conditions: patients with T2DM
Method: Safety and tolerability were evaluated by monitoring adverse events (AEs), laboratory tests (including blood routine, urine routine, stool routine, blood biochemical test and coagulation function), vital signs, physical examination, 12-lead electrocardiogram and other indicators. AEs were monitored and collected throughout the study. Descriptive analysis of the type and intensity of AEs were conducted according to NCICTC AE5.0.

[5] = target: T1, plasma DPP-4 activity (Homo sapiens, UniProt P27487); assay: Emax model of plasma concentration vs DPP-4 inhibition; assay type: in vivo; conditions: patients with T2DM
T1 construct: The plasma DPP-4 activity was determined using a fluorescent method with the substrate Gly-Pro-7-amide-4-methylcoumarin; from tissue; host or cells: human plasma (K2-EDTA blood from T2DM patients)
T1 sequence (P27487 39-766 limits assumed): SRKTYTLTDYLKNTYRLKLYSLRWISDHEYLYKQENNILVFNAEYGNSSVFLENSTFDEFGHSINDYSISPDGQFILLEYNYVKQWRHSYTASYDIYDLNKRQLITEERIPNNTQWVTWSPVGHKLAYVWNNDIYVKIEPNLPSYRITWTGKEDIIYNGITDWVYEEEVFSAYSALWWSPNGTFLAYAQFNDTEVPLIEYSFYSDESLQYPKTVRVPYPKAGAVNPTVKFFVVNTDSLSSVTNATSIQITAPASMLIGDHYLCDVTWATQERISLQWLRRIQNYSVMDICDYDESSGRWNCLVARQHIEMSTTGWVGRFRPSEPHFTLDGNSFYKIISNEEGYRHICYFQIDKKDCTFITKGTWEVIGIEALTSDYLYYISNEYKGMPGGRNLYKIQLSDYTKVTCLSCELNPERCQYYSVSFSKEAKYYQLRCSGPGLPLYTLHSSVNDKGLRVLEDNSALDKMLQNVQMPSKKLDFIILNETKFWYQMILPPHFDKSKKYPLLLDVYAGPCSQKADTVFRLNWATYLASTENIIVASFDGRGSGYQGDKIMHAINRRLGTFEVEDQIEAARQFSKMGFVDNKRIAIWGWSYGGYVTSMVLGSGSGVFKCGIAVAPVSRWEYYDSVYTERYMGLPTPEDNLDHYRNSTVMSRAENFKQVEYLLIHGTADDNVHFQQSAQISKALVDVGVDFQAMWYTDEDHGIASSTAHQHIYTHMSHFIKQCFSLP

[6] = test system: serum DPP-4 activity; design: method as in PMID 22686547; conditions: Zucker Diabetic Fatty rats; preclinical studies (data not published); cited from earlier work
[7] = target: T2, DPP-4 (Homo sapiens, UniProt P27487); assay: Population PK/PD model (Sigmoid-Emax, DPP-4 inhibition); assay type: in vivo
T2 construct: from tissue; host or cells: human plasma (K2-EDTA blood from T2DM patients)
T2 sequence (P27487 39-766 limits assumed): as above
From the text: As a result of data with an absolute value of CWRES greater than 5 being excluded, only 554 blood concentrations of cetagliptin were included in development of the PopPK/PD model. A direct-effect model was used to build the PK/PD model; and the model formula was as follows:
DPP−4 inhibition (%)=Emax*C^γ/(EC50γ+C^γ)

[8] = test system: glucose, insulin, C-peptide, and glucagon; assay: Oral glucose tolerance test (OGTT): glucose, insulin, C-peptide, glucagon; assay type: in vivo, human; design: change of AUEC0-3 h relative to baseline for insulin (OGTT) / change of AUEC0-3 h relative to baseline for C-peptide (OGTT) / change of AUEC0-3 h relative to baseline for glucagon (OGTT) / C-peptide AUEC0-t (OGTT) / glucagon AUEC0-t (OGTT) / insulin AUEC0-t (OGTT): unit not given here; conditions: patients with T2DM; for change of AUEC0-3 h relative to baseline for C-peptide (OGTT) / change of AUEC0-3 h relative to baseline for glucagon (OGTT) / change of AUEC0-3 h relative to baseline for insulin (OGTT) / change of AUEC0-3 h relative to baseline for plasma glucose (OGTT): day 15 vs day -1
Method: To assess the impact of investigational products on glucose, insulin, C-peptide, and glucagon, OGTT tests were conducted on day -1 and day 15 following a fasting period of more than 8 hours. Subjects received a 75 g oral glucose dose and blood samples (1.5 mL for glucose, 3.5 mL for insulin and C-peptide, 2 mL for glucagon) were collected at 0, 0.167, 0.5, 1, 1.5, 2, and 3 h after ingestion of glucose. The PD parameters (AUEC0-t) for glucose, insulin, C-peptide, and glucagon were calculated by using drug effect module of non-compartmental method with Phoenix WinNonlin.

[9] = cetagliptin group (50 or 100 mg, n=20) / sitagliptin group (100 mg, n=8), 14 days
[10] = final model estimate, patients with T2DM
[11] = 50 mg group, day -1 (baseline before dosing)
[12] = 100 mg group, day -1 (baseline before dosing)
[13] = day 15 after 50 mg once daily for 14 days
[14] = day 15 after 100 mg once daily for 14 days

Structure (SMILES): C[C@@H]1c2cnc(C(F)(F)F)n2CCN1C(=O)C[C@H](N)Cc1cc(F)c(F)cc1F.O=P(O)(O)O [Cetagliptin, cetagliptin]
- AUC0-τ (steady state) ([1]; 50 mg): 1440 ng·h/mL
- Cmax (steady state) ([1]; 50 mg): 125 ng/mL
- RAUC ([1]; 50 mg): 1.72
- Tmax (steady state) ([1]; 50 mg): 1.5 h
- t1/2 (steady state) ([1]; 50 mg): 38.8 h
- AUC0-τ (steady state) ([1]; 100 mg): 3120 ng·h/mL
- Cmax (steady state) ([1]; 100 mg): 294 ng/mL
- RAUC ([1]; 100 mg): 1.38
- Tmax (steady state) ([1]; 100 mg): 1.0 h
- t1/2 (steady state) ([1]; 100 mg): 36.6 h
- tvCl2 (typical value of intercompartment clearance) [2]: 9.671 L/h
- tvV (typical value of volume of central compartment distribution) [2]: 8.668 L
- accumulation ratios of Rmax and AUEC0-24 h for plasma active GLP-1 ([3]; 50 mg): about 1.0
- accumulation ratios of Rmax and AUEC0-24 h for plasma active GLP-1 ([3]; 100 mg): about 1.0
- intensity of drug-related adverse events ([4]; cetagliptin 50 or 100 mg, sitagliptin 100 mg, 14 days): mild
- number of drug-related AEs [4, 9]: 3 AEs
- number of subjects reporting drug-related AEs [4, 9]: 2 subjects
- serious AEs or withdrawals due to AEs ([4]; once daily for 14 days): no serious AEs or withdraws due to AEs
- EC50 (plasma concentration producing half the maximum DPP-4 inhibition) ([5]; Emax model): 5.37 ng/mL
- Emax (maximum DPP-4 inhibition, Emax model) ([5]; plasma concentration vs DPP-4 inhibition): 92.47%
- inhibition of serum DPP-4 activity [6]: ≥ 80%
- tvEC50 (typical value of concentration for 50% of maximal effect) ([7]; bootstrap median): 5.120
- tvEmax (typical value of maximum pharmacodynamic effects) ([7]; bootstrap median): 91.78
- tvGam (typical value of Hill coefficient) ([7]; bootstrap median): 1.008
- tvEC50 (typical value of concentration for 50% of maximal effect) [7, 10]: 5.120
- tvEmax (typical value of maximum pharmacodynamic effects) [7, 10]: 91.78
- tvGam (typical value of Hill coefficient) [7, 10]: 1.008
- C-peptide AUEC0-t (OGTT) [8, 11]: 4072.02 ± 1174.82
- glucagon AUEC0-t (OGTT) [8, 11]: 469.51 ± 189.76
- glucose AUEC0-t (OGTT) [8, 11]: 48.65 ± 5.34 mmol·h/L
- insulin AUEC0-t (OGTT) [8, 11]: 431.53 ± 271.81
- change of AUEC0-3 h relative to baseline for C-peptide (OGTT) ([8]; 50 mg once daily): 1851.30
- change of AUEC0-3 h relative to baseline for glucagon (OGTT) ([8]; 50 mg once daily): -72.70
- change of AUEC0-3 h relative to baseline for insulin (OGTT) ([8]; 50 mg once daily): 219.90
- change of AUEC0-3 h relative to baseline for plasma glucose (OGTT) ([8]; 50 mg once daily): -4.97 mmol·h/L
- C-peptide AUEC0-t (OGTT) [8, 12]: 6059.64 ± 1263.61
- glucagon AUEC0-t (OGTT) [8, 12]: 503.79 ± 161.61
- glucose AUEC0-t (OGTT) [8, 12]: 40.59 ± 2.87 mmol·h/L
- insulin AUEC0-t (OGTT) [8, 12]: 716.44 ± 250.84
- change of AUEC0-3 h relative to baseline for C-peptide (OGTT) ([8]; 100 mg once daily): 1761.48
- change of AUEC0-3 h relative to baseline for glucagon (OGTT) ([8]; 100 mg once daily): -7.21
- change of AUEC0-3 h relative to baseline for insulin (OGTT) ([8]; 100 mg once daily): 292.18
- change of AUEC0-3 h relative to baseline for plasma glucose (OGTT) ([8]; 100 mg once daily): -2.76 mmol·h/L
- C-peptide AUEC0-t (OGTT) [8, 13]: 5923.31 ± 2012.97
- glucagon AUEC0-t (OGTT) [8, 13]: 396.81 ± 51.89
- glucose AUEC0-t (OGTT) [8, 13]: 43.68 ± 8.04 mmol·h/L
- insulin AUEC0-t (OGTT) [8, 13]: 651.43 ± 455.05
- C-peptide AUEC0-t (OGTT) [8, 14]: 7821.13 ± 2023.09
- glucagon AUEC0-t (OGTT) [8, 14]: 496.58 ± 158.93
- glucose AUEC0-t (OGTT) [8, 14]: 37.83 ± 5.09 mmol·h/L
- insulin AUEC0-t (OGTT) [8, 14]: 1008.62 ± 367.20

Reference: publication PMC10961402, “Safety, tolerability, pharmacokinetics and pharmacokinetic-pharmacodynamic modeling of cetagliptin in patients with type 2 diabetes mellitus” (Frontiers in Endocrinology, 2024)
